The target of one experiment is PIM1 (Homo sapiens (Human), UniProt P11309). Kind of experiment: Pim1 ATP depletion assay. Particulars: 20 μM ATP, 40 μM BAD peptide. The class given is biochemical. On the procedure: The activity of PIM1 is measured using a luciferase-luciferin based ATP detection reagent to quantify ATP depletion resulting from kinase-catalyzed phosphoryl transfer to a peptide substrate. Compounds to be tested are dissolved in 100% DMSO and directly distributed into white 384-well plates at 0.5 μA per well. To start the reaction, 10 μl of 5 nM Pim1 kinase and 80 μM BAD peptide (RSRHSSYPAGT-OH) in assay buffer (50 mM HEPES pH 7.5, 5 mM MgCl2, 1 mM DTT, 0.05% BSA) is added into each well. After 15 minutes, 10 μl of 40 μM ATP in assay buffer is added. Final assay concentrations are 2.5 nM PIM1, 20 μM ATP, 40 μM BAD peptide and 2.5% DMSO. The reaction is performed until approximately 50% of the ATP is depleted, then stopped with the addition of 20 μl KinaseGlo Plus (Promega Corporation) solution. The stopped reaction is incubated for 10 minutes and the remaining ATP detected via luminescence on the Victor2 (Perkin Elmer). […] IC50, the half maximal inhibitory concentration, represents the concentration of a test compound that is required for 50% inhibition of its target in vitro.
PIM1, sequence (P11309 whole entry, species assumed): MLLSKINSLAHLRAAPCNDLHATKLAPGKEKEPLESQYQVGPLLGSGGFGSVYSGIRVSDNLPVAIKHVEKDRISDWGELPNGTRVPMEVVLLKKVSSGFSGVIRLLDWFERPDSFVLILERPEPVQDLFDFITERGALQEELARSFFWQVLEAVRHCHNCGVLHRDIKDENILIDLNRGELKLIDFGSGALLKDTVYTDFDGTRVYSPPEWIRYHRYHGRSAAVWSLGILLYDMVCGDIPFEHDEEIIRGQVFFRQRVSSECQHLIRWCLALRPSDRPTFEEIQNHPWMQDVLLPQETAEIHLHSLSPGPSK

Another experiment deals with PIM3 (Homo sapiens (Human), UniProt Q86V86). Kind of experiment: Pim3 ATP depletion assay. It is filed as biochemical. Particulars: 40 μM ATP, 100 μM BAD peptide. On the procedure: The activity of PIM3 is measured using a luciferase-luciferin based ATP detection reagent to quantify ATP depletion resulting from kinase-catalyzed phosphoryl transfer to a peptide substrate. Compounds to be tested are dissolved in 100% DMSO and directly distributed into white 384-well plates at 0.5 μA per well. To start the reaction, 10 μl of 10 nM Pim3 kinase and 200 μM BAD peptide (RSRHSSYPAGT-OH) in assay buffer (50 mM HEPES pH 7.5, 5 mM MgCl2, 1 mM DTT, 0.05% BSA) is added into each well. After 15 minutes, 10 μl of 80 μM ATP in assay buffer is added. Final assay concentrations are 5 nM PIM1, 40 μM ATP, 100 μM BAD peptide and 2.5% DMSO. The reaction is performed until approximately 50% of the ATP is depleted, then stopped by the addition of 20 μl KinaseGlo Plus (Promega Corporation) solution. The stopped reaction is incubated for 10 minutes and the remaining ATP detected via luminescence on the Victor2 (Perkin Elmer).

The next experiment addresses PIM2 (Homo sapiens (Human), UniProt Q9P1W9). Kind of experiment: Pim2 ATP depletion assay. The class given is biochemical. Particulars: 4 μM ATP, 10 μM BAD peptide. The procedure: The activity of PIM2 is measured using a luciferase-luciferin based ATP detection reagent to quantify ATP depletion resulting from kinase-catalyzed phosphoryl transfer to a peptide substrate. Compounds to be tested are dissolved in 100% DMSO and directly distributed into white 384-well plates at 0.5 μl per well. To start the reaction, 10 μl of 10 nM Pim2 kinase and 20 μM BAD peptide (RSRHSSYPAGT-OH) in assay buffer (50 mM HEPES pH 7.5, 5 mM MgCl2, 1 mM DTT, 0.05% BSA) is added into each well. After 15 minutes, 10 μl of 8 μM ATP in assay buffer is added. Final assay concentrations are 5 nM PIM2, 4 μM ATP, 10 μM BAD peptide and 2.5% DMSO. The reaction is performed until approximately 50% of the ATP is depleted, then stopped with the addition of 20 μl KinaseGlo Plus (Promega Corporation) solution. The stopped reaction is incubated for 10 minutes and the remaining ATP detected via luminescence on the Victor2 (Perkin Elmer).

For a further experiment, the system named is KMS11 cells. Kind of experiment: Cell proliferation assay. The class given is cell-based. The settings on record: KMS-11, 72 h; KMS11 human myeloma cell line, 3 days, CellTiter-Glo. The procedure:
KMS11 (human myeloma cell line), were cultured in IMDM supplemented with 10% FBS, sodium pyruvate and antibiotics. Cells were plated in the same medium at a density of 2000 cells per well into 96 well tissue culture plates, with outside wells vacant, on the day of assay. MM1.s (human myeloma cell line), were cultured in RPMI1640 supplemented with 10% FBS, sodium pyruvate and antibiotics. Cells were plated in the same medium at a density of 5000 cells per well into 96 well tissue culture plates, with outside wells vacant, on the day of assay.
Test compounds supplied in DMSO were diluted into DMSO at 500 times the desired final concentrations before dilution into culture media to 2 times final concentrations. Equal volumes of 2× compounds were added to the cells in 96 well plates and incubated at 37° C. for 3 days.
After 3 days plates were equilibrated to room temperature and equal volume of CellTiter-Glow Reagent (Promega) was added to the culture wells. The plates were agitated briefly and luminescent signal was measured with luminometer. The percent inhibition of the signal seen in cells treated with DMSO alone vs. cells treated with control compound was calculated and used to determine EC50 values (i.e., the concentration of a test compound that is required to obtain 50% of the maximum effect in the cells) for tested compounds, as shown in Example 24.
(In general: In ATP-based viability assays light output follows the ATP content of the culture.)

Where only a bound is given, the exact number is not on record here.

PIM2, sequence (Q9P1W9 whole entry, species assumed): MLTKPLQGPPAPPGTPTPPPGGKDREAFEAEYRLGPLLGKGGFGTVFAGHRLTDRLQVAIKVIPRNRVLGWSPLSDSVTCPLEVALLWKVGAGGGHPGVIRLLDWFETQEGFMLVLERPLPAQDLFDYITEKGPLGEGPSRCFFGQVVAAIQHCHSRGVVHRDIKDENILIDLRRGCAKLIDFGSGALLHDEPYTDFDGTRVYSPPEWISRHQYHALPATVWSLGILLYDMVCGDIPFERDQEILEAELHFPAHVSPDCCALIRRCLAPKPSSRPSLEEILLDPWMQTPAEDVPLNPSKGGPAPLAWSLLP

As a reminder, the IC50 is the concentration at which inhibition is half-maximal. With `N[C@H]1CN(c2ccncc2Nc2cccc3cnc(-c4c(F)cccc4F)nc23)CC[C@@H]1F` [Example 10, N-(4-((3S,4S)-3-amino-4-fluoropiperidin-1-yl)pyridin-3-yl)-2-(2,6-difluorophenyl)quinazolin-8-amine], the figures for the IC50 against PIM1, at PIM3 and against PIM2 were 4.7 µM, 0.502 µM and more than 25 µM, respectively.
For `N[C@H]1CCCN(c2ncncc2Nc2cccc3cnc(-c4c(F)cccc4F)nc23)C1` [Example 12, (S)-N-(4-(3-aminopiperidin-1-yl)pyrimidin-5-yl)-2-(2,6-difluorophenyl)quinazolin-8-amine] the same measures were 5.4 µM, 3.9 µM and more than 25 µM.
In the same order, the values of `N[C@H]1CCCN(c2ccncc2Nc2cccc3cnc(-c4c(F)cccc4F)nc23)C1` [Example 17, (S)-N-(4-(3-aminopiperidin-1-yl)pyridin-3-yl)-2-(2,6-difluorophenyl)quinazolin-8-amine] are 0.021 µM, 0.016 µM and 0.031 µM.
Take `N[C@@H]1CN(c2ccncc2Nc2cccc3cnc(-c4c(F)cccc4F)nc23)CC[C@H]1O` [Example 3, (3R,4R)-3-amino-1-(3-(2-(2,6-difluorophenyl)-quinazolin-8-ylamino)-pyridin-4-yl)piperidin-4-ol]: the concentration for half-maximal inhibition (IC50) against PIM1 was 0.184 µM; at PIM3, 0.067 µM; on PIM2, 0.23 µM.
For `CCO[C@@H]1C[C@H](N)CN(c2ccncc2Nc2cccc3cnc(-c4c(F)cccc4F)nc23)C1` [Example 6, N-(4-((3S,5R)-3-amino-5-ethoxypiperidin-1-yl)pyridin-3-yl)-2-(2,6-difluorophenyl)quinazolin-8-amine] the same measures were 1.7 µM, 2.1 µM and 0.46 µM.
For `N[C@@H]1CN(c2ccncc2Nc2cccc3cnc(-c4c(F)cccc4F)nc23)CC[C@@H]1O` [Example 2, (3R,4S)-3-amino-1-(3-(2-(2,6-difluorophenyl)-quinazolin-8-ylamino)-pyridin-4-yl)piperidin-4-ol] the same measures were 0.039 µM, 0.018 µM and 0.09 µM.
For `N[C@@H]1CN(c2ccncc2Nc2cccc3cnc(-c4c(F)cccc4F)nc23)CC[C@H]1F` [Example 9, N-(4-((3R,4R)-3-amino-4-fluoropiperidin-1-yl)pyridin-3-yl)-2-(2,6-difluorophenyl)quinazolin-8-amine] the same measures were 0.465 µM, 0.17 µM and 0.498 µM.
For orientation: EC50 means the concentration that produces a half-maximal response. As to `N[C@H]1C[C@@H](CF)CN(c2ccncc2Nc2cccc3cnc(-c4c(F)cccc4F)nc23)C1` [Example 13, N-(4-((3S,5R)-3-amino-5-(fluoromethyl)piperidin-1-yl)pyridin-3-yl)-2-(2,6-difluorophenyl)quinazolin-8-amine], the IC50 on PIM1 is 0.053 µM; on PIM3 it was 0.049 µM; against PIM2, 0.02 µM. The same molecule gave a concentration giving a half-maximal response (EC50) in the experiment on KMS11 cells of 7.3 µM.
In the same order, the values of `C[C@@H]1C[C@H](N)CN(c2ccncc2Nc2cccc3cnc(-c4c(F)cccc4F)nc23)C1` [Example 15, N-(4-((3S,5R)-3-amino-5-methylpiperidin-1-yl)pyridin-3-yl)-2-(2,6-difluorophenyl)quinazolin-8-amine] are 0.018 µM, 0.019 µM, 0.009 µM and 2.6 µM.
Consider `N[C@@H]1CCCN(c2ccncc2Nc2cccc3cnc(-c4c(F)cccc4F)nc23)C1` [Example 7, (R)-N-(4-(3-aminopiperidin-1-yl)pyridin-3-yl)-2-(2,6-difluorophenyl)quinazolin-8-amine], for which the IC50 at PIM1 worked out at 2.1 µM; at PIM3, 0.212 µM; against PIM2 it was 3.6 µM.
For `NC1C=C(c2ccncc2Nc2cccc3cnc(-c4c(F)cccc4F)nc23)CCC1` (centres unmarked) [Example 1, N-(4-(3-aminocyclohex-1-enyl)pyridin-3-yl)-2-(2,6-difluorophenyl)quinazolin-8-amine] the same measures were 0.152 µM, 0.078 µM and 0.392 µM.
In the same order, the values of `N[C@H]1CCCN(c2ccncc2Nc2cccc3cnc(-c4ccccc4F)nc23)C1` [Example 18, (S)-N-(4-(3-aminopiperidin-1-yl)pyridin-3-yl)-2-(2-fluorophenyl)quinazolin-8-amine] are 0.029 µM, 0.018 µM and 0.131 µM.
In the same order, the values of `NC1CCCCN(c2ccncc2Nc2cccc3cnc(-c4c(F)cccc4F)nc23)C1` (centres unmarked) [Example 11, N-(4-(3-aminoazepan-1-yl)pyridin-3-yl)-2-(2,6-difluorophenyl)quinazolin-8-amine] are 2.9 µM, 0.468 µM and more than 25 µM.
Consider `C[C@H]1C[C@@H](N)CN(c2ccncc2Nc2cccc3cnc(-c4c(F)cccc4F)nc23)C1` [Example 14, N-(4-((3R,5S)-3-amino-5-methylpiperidin-1-yl)pyridin-3-yl)-2-(2,6-difluorophenyl)quinazolin-8-amine], for which the IC50 came out at 0.882 µM against PIM1, 0.18 µM at PIM3 and 0.852 µM against PIM2.
In the same order, the values of `NC1CC(N)CN(c2ccncc2Nc2cccc3cnc(-c4c(F)cccc4F)nc23)C1` (centres unmarked) [Example 8, 1-(3-(2-(2,6-difluorophenyl)quinazolin-8-ylamino)pyridin-4-yl)piperidine-3,5-diamine] are 2.3 µM, 0.246 µM and 2.5 µM.
For `N[C@H]1CCCN(c2ccncc2Nc2cccc3cnc(-c4cccc(-c5nccs5)c4)nc23)C1` [Example 19, (S)-N-(4-(3-aminopiperidin-1-yl)pyridin-3-yl)-2-(3-(thiazol-2-yl)phenyl)quinazolin-8-amine] the same measures were 0.056 µM, 0.095 µM and 2 µM.
For `N[C@H]1CCCN(c2ccncc2Nc2cccc3cnc(-c4nccs4)nc23)C1` [Example 16, (S)-N-(4-(3-aminopiperidin-1-yl)pyridin-3-yl)-2-(thiazol-2-yl)quinazolin-8-amine], the half-inhibitory concentration (IC50) is 0.411 µM against PIM1, 0.149 µM on PIM3 and 1.9 µM on PIM2.
